Assay results taken from patent US9073855B2, “BCL-2 selective apoptosis-inducing agents for the treatment of cancer and immune diseases” (AbbVie Inc., priority 2008, dated 2015).

Legend:
GST-Bcl-2 = GST-Bcl-2 (Homo sapiens, UniProt P10415); assay: TR-FRET binding assay, GST-Bcl-2 with F-Bak peptide probe; conditions: TR-FRET Binding Affinity, GST-Bcl-2, F-Bak peptide probe
In short: (§1)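 Ki was derived with Wang's equation for competitive binding of two ligands. The read-out was time-resolved fluorescence after a 3 h room-temperature incubation, using a Tb-labelled antibody donor and the F-Bak peptide acceptor (excitation 340/35 nm). Test compounds entered as DMSO serial dilutions starting at 50 μM, which was the 2× concentration.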

FL5.12/Bcl-2 cells = assay: FL5.12/Bcl-2 cell viability assay under IL-3 withdrawal (CellTitre Glo); type: cell-based, murine; conditions: Mus musculus, IL-3 withdrawn 48 hrs, then 24 hrs with compound
In short: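 IL-3 withdrawal 48 hrs (no WEHI-3B medium), then compound 24 hrs, various concentrations; 37° C, 5% CO2; readout CellTitre Glo. Murine prolymphocytic FL5.12 stably overexpressing Bcl-2.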

GST-Bcl-XL = GST-Bcl-XL (Homo sapiens, UniProt Q07817); assay: TR-FRET binding assay, GST-Bcl-XL with F-Bak peptide probe; conditions: TR-FRET Binding Affinity, GST-Bcl-XL, F-Bak peptide probe
In short: as §1

GST-Bcl-XL, sequence (Q07817 whole entry): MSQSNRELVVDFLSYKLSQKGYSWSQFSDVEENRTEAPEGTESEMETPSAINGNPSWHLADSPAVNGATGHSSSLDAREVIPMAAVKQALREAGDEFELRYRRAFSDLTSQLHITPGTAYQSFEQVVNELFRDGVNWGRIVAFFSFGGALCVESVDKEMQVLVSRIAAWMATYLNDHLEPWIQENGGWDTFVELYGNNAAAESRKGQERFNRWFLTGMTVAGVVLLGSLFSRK
GST-Bcl-2, sequence (P10415 whole entry): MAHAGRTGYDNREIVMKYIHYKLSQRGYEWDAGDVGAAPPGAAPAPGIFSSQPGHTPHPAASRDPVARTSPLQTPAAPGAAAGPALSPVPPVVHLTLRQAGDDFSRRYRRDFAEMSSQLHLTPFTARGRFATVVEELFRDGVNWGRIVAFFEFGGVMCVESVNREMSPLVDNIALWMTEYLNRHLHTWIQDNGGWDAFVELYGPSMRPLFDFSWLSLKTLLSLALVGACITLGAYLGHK

CC1(C)CCC(CN2CCN(c3ccc(C(=O)NS(=O)(=O)c4ccc(NCC5CCOCC5)c(C#N)c4)c(Oc4ccc5[nH]ccc5c4)c3)CC2)=C(c2ccc(Cl)cc2)C1 [Example 367, 4-(4-{[2-(4-chlorophenyl)-4,4-dimethylcyclohex-1-en-1-yl]methyl}piperazin-1-yl)-N-({3-cyano-4-[(tetrahydro-2H-pyran-4-ylmethyl)amino]phenyl}sulfonyl)-2-(1H-indol-5-yloxy)benzamide] was tested, and the Ki (GST-Bcl-2) was 4.61 nM, the EC50 (FL5.12/Bcl-2 cells) was over 500 nM and the Ki (GST-Bcl-XL) was over 660 nM.
In the case of CC(C)(C)c1ccc(CN2CCN(c3ccc(C(=O)NS(=O)(=O)c4ccc(OCC5CCOCC5)c([N+](=O)[O-])c4)c(Oc4ccc5[nH]ccc5c4)c3)CC2)c(-c2ccc(Cl)cc2)c1 [Example 342, 4-{4-[(5-tert-butyl-4′-chloro-1,1′-biphenyl-2-yl)methyl]piperazin-1-yl}-2-(1H-indol-5-yloxy)-N-{[3-nitro-4-(tetrahydro-2H-pyran-4-ylmethoxy)phenyl]sulfonyl}benzamide], the Ki (GST-Bcl-2) is reported as 25.8 nM, the EC50 (FL5.12/Bcl-2 cells) is reported as over 500 nM and the Ki (GST-Bcl-XL) is reported as over 660 nM.
For CC1(C)CCC(CN2CCN(c3ccc(C(=O)NS(=O)(=O)c4ccc(NCCCN5CCNC(=O)C5)c([N+](=O)[O-])c4)c(Oc4cccc5[nH]ccc45)c3)CC2)=C(c2ccc(Cl)cc2)C1 [Example 223, 4-(4-{[2-(4-chlorophenyl)-4,4-dimethylcyclohex-1-en-1-yl]methyl}piperazin-1-yl)-2-(1H-indol-4-yloxy)-N-[(3-nitro-4-{[3-(3-oxopiperazin-1-yl)propyl]amino}phenyl)sulfonyl]benzamide], the Ki (GST-Bcl-2) was 0.169 nM, the EC50 (FL5.12/Bcl-2 cells) was 37.1 nM and the Ki (GST-Bcl-XL) was 97.3 nM.
CC1(C)CCC(CN2CCN(c3ccc(C(=O)NS(=O)(=O)c4ccc(NC5(CO)CCOCC5)c([N+](=O)[O-])c4)c(Oc4ccc5[nH]ccc5c4)c3)CC2)=C(c2ccc(Cl)cc2)C1 [Example 240, 4-(4-{[2-(4-chlorophenyl)-4,4-dimethylcyclohex-1-en-1-yl]methyl}piperazin-1-yl)-N-[(4-{[4-(hydroxymethyl)tetrahydro-2H-pyran-4-yl]amino}-3-nitrophenyl)sulfonyl]-2-(1H-indol-5-yloxy)benzamide] was tested, and the Ki (GST-Bcl-2) was 0.83 nM, the EC50 (FL5.12/Bcl-2 cells) was 209 nM and the Ki (GST-Bcl-XL) was over 660 nM.
CC(C)C[C@@H](CO)Nc1ccc(S(=O)(=O)NC(=O)c2ccc(N3CCN(CC4=C(c5ccc(Cl)cc5)CC(C)(C)CC4)CC3)cc2Oc2ccc3[nH]ccc3c2)cc1[N+](=O)[O-] [Example 369, 4-(4-{[2-(4-chlorophenyl)-4,4-dimethylcyclohex-1-en-1-yl]methyl}piperazin-1-yl)-N-[(4-{[(1S)-1-(hydroxymethyl)-3-methylbutyl]amino}-3-nitrophenyl)sulfonyl]-2-(1H-indol-5-yloxy)benzamide] gave a Ki (GST-Bcl-2) of 838 nM, an EC50 (FL5.12/Bcl-2 cells) of over 500 nM and a Ki (GST-Bcl-XL) of over 660 nM.
Compound CC1(C)CCC(CN2CCN(c3ccc(C(=O)NS(=O)(=O)c4ccc(OCCCS(C)(=O)=O)c([N+](=O)[O-])c4)c(Oc4cccc5[nH]ccc45)c3)CC2)=C(c2ccc(Cl)cc2)C1 [Example 316, 4-(4-{[2-(4-chlorophenyl)-4,4-dimethylcyclohex-1-en-1-yl]methyl}piperazin-1-yl)-2-(1H-indol-4-yloxy)-N-({4-[3-(methylsulfonyl)propoxy]-3-nitrophenyl}sulfonyl)benzamide] has a Ki (GST-Bcl-2) of 0.149 nM, an EC50 (FL5.12/Bcl-2 cells) of 67.5 nM and a Ki (GST-Bcl-XL) of 79.5 nM.
CN1CCN(Nc2ccc(S(=O)(=O)NC(=O)c3ccc(N4CCN(CC5=C(c6ccc(Cl)cc6)CC(C)(C)CC5)CC4)cc3Oc3cccc4[nH]ccc34)cc2[N+](=O)[O-])CC1 [Example 190, 4-(4-{[2-(4-chlorophenyl)-4,4-dimethylcyclohex-1-en-1-yl]methyl}piperazin-1-yl)-2-(1H-indol-4-yloxy)-N-({4-[(4-methylpiperazin-1-yl)amino]-3-nitrophenyl}sulfonyl)benzamide] was tested, and the Ki (GST-Bcl-2) was 0.512 nM, the EC50 (FL5.12/Bcl-2 cells) was 24.2 nM and the Ki (GST-Bcl-XL) was 97.1 nM.
With CC1(C)CCC(CN2CCN(c3ccc(C(=O)NS(=O)(=O)c4ccc(N5CCOCC5)c([N+](=O)[O-])c4)c(Oc4ccc5[nH]ccc5c4)c3)CC2)=C(c2ccc(Cl)cc2)C1 [Example 270, 4-(4-{[2-(4-chlorophenyl)-4,4-dimethylcyclohex-1-en-1-yl]methyl}piperazin-1-yl)-2-(1H-indol-5-yloxy)-N-[(4-morpholin-4-yl-3-nitrophenyl)sulfonyl]benzamide] the Ki (GST-Bcl-2) was 3.31 nM, the EC50 (FL5.12/Bcl-2 cells) was 429 nM and the Ki (GST-Bcl-XL) was over 660 nM.
In the case of C[C@H](Nc1ccc(S(=O)(=O)NC(=O)c2ccc(N3CCN(CC4=C(c5ccc(Cl)cc5)CC(C)(C)CC4)CC3)cc2Oc2ccc3[nH]ccc3c2)cc1[N+](=O)[O-])c1ccccc1 [Example 378, 4-(4-{[2-(4-chlorophenyl)-4,4-dimethylcyclohex-1-en-1-yl]methyl}piperazin-1-yl)-2-(1H-indol-5-yloxy)-N-[(3-nitro-4-{[(1S)-1-phenylethyl]amino}phenyl)sulfonyl]benzamide], the Ki (GST-Bcl-2) is reported as 63 nM, the EC50 (FL5.12/Bcl-2 cells) is reported as over 500 nM and the Ki (GST-Bcl-XL) is reported as over 660 nM.
With CC1(C)CCC(CN2CCN(c3ccc(C(=O)NS(=O)(=O)c4ccc(OCC5(F)CCOCC5)c([N+](=O)[O-])c4)c(Oc4cccc5[nH]cnc45)c3)CC2)=C(c2ccc(Cl)cc2)C1 [Example 408, 2-(1H-benzimidazol-4-yloxy)-4-(4-{[2-(4-chlorophenyl)-4,4-dimethylcyclohex-1-en-1-yl]methyl}piperazin-1-yl)-N-({4-[(4-fluorotetrahydro-2H-pyran-4-yl)methoxy]-3-nitrophenyl}sulfonyl)benzamide] the Ki (GST-Bcl-2) was 0.002 nM, the EC50 (FL5.12/Bcl-2 cells) was 2.39 nM and the Ki (GST-Bcl-XL) was 28.1 nM.
In the case of CN1CCC(Oc2ccc(S(=O)(=O)NC(=O)c3ccc(N4CCN(CC5=C(c6ccc(Cl)cc6)CC(C)(C)CC5)CC4)cc3Oc3ccc4[nH]ccc4c3)cc2[N+](=O)[O-])CC1 [Example 353, 4-(4-{[2-(4-chlorophenyl)-4,4-dimethylcyclohex-1-en-1-yl]methyl}piperazin-1-yl)-2-(1H-indol-5-yloxy)-N-({4-[(1-methylpiperidin-4-yl)oxy]-3-nitrophenyl}sulfonyl)benzamide], the Ki (GST-Bcl-2) is reported as 0.292 nM, the EC50 (FL5.12/Bcl-2 cells) is reported as 58.3 nM and the Ki (GST-Bcl-XL) is reported as over 660 nM.
In the case of CN1CCC(O)(CNc2ccc(S(=O)(=O)NC(=O)c3ccc(N4CCN(CC5=C(c6ccc(Cl)cc6)CC(C)(C)CC5)CC4)cc3Oc3ccc4[nH]ccc4c3)cc2[N+](=O)[O-])CC1 [Example 183, 4-(4-{[2-(4-chlorophenyl)-4,4-dimethylcyclohex-1-en-1-yl]methyl}piperazin-1-yl)-N-[(4-{[(4-hydroxy-1-methylpiperidin-4-yl)methyl]amino}-3-nitrophenyl)sulfonyl]-2-(1H-indol-5-yloxy)benzamide], the Ki (GST-Bcl-2) is reported as 0.039 nM, the EC50 (FL5.12/Bcl-2 cells) is reported as 30.8 nM and the Ki (GST-Bcl-XL) is reported as 9.43 nM.
CC1(C)CCC(CN2CCN(c3ccc(C(=O)NS(=O)(=O)c4ccc(S(C)(=O)=O)cc4)c(Oc4ccc5[nH]ccc5c4)c3)CC2)=C(c2ccc(Cl)cc2)C1 [Example 382, 4-(4-{[2-(4-chlorophenyl)-4,4-dimethylcyclohex-1-en-1-yl]methyl}piperazin-1-yl)-2-(1H-indol-5-yloxy)-N-{[4-(methylsulfonyl)phenyl]sulfonyl}benzamide] was tested, and the Ki (GST-Bcl-2) was 1.15 nM, the EC50 (FL5.12/Bcl-2 cells) was over 500 nM and the Ki (GST-Bcl-XL) was over 660 nM.
